Laboratory results taken from the supplement of paper PMC11061612.

Columns and labels:
[1] = system: SNU-1 (Gastric Carcinoma); experiment: combination Emax (second highest fraction inhibited in the dose matrix, 72 h); higher = more inhibition; extreme values may be limits of the assay
Outline: (§1)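 After 24 hours at 37°C and 5% CO2 in 1536-well plates, cells in DMEM/F12 or RPMI plus 10% FBS received two-drug dose matrices for 72 hours. Viability came from CellTiter-Glo 2.0 luminescence and was scaled as inhibition, anchored at 0 by vehicle wells and at 1 by blank wells. Combination Emax is taken as the second-highest inhibition in the matrix, and Bliss excess as the observed combination effect less EA + EB − EA·EB, with EA and EB the single-agent effects.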

[2] = system: NCI-H2009 (Lung Adenocarcinoma); experiment: as above
Outline: as §1

HT-144 (Melanoma) = experiment: as above
Outline: as §1

A375 (Melanoma) [3] = experiment: as above
Outline: as §1

MG-63 (Osteosarcoma) = experiment: as above
Outline: as §1

[4] = system: SUP-HD1 (Hodgkin's Lymphoma); experiment: as above
Outline: as §1

C32 (Melanoma) [5] = experiment: as above
Outline: as §1

[6] = system: RPMI-8402 (T-Lymphoblastic Leukemia); experiment: as above
Outline: as §1

[7] = system: ATN-1 (T-Lymphoblastic Leukemia); experiment: Bliss excess, mean over the matrix (fraction); higher = more synergy
Outline: as §1

[8] = system: HT-3 (Cervical Carcinoma); experiment: as above
Outline: as §1

[9] = system: SBC-5 (Small Cell Lung Carcinoma); experiment: as above
Outline: as §1

[10] = system: IGROV-1 (Ovarian Carcinoma); experiment: as above
Outline: as §1

[11] = system: NCI-H1435 (Non-Small Cell Lung Carcinoma); experiment: as above
Outline: as §1

[12] = system: OCI-M1 (Acute Myeloid Leukemia); experiment: as above
Outline: as §1

[13] = system: KNS-62 (Squamous Cell Lung Carcinoma); experiment: as above
Outline: as §1

A375 (Melanoma) [14] = experiment: as above
Outline: as §1

[15] = system: NCI-H2023 (Non-Small Cell Lung Carcinoma); experiment: as above
Outline: as §1

[16] = system: BC-1 (B-Cell Non-Hodgkin's Lymphoma); experiment: as above
Outline: as §1

SK-N-DZ (Neuroblastoma) = experiment: as above
Outline: as §1

C32 (Melanoma) [17] = experiment: as above
Outline: as §1
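Wherever Bliss excess, mean over the matrix is given: after 72 h of two-drug dosing.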

Row | SMILES | combination Emax [1] | combination Emax [2] | combination Emax (HT-144 (Melanoma)) | combination Emax (A375 (Melanoma) [3]) | combination Emax (MG-63 (Osteosarcoma)) | combination Emax [4] | combination Emax (C32 (Melanoma) [5]) | combination Emax [6] | Bliss excess [7] | Bliss excess [8] | Bliss excess [9] | Bliss excess [10] | Bliss excess [11] | Bliss excess [12] | Bliss excess [13] | Bliss excess (A375 (Melanoma) [14]) | Bliss excess [15] | Bliss excess [16] | Bliss excess (SK-N-DZ (Neuroblastoma)) | Bliss excess (C32 (Melanoma) [17])
1 | CC1(C)CCC(CN2CCN(c3ccc(C(=O)NS(=O)(=O)c4ccc(NCC5CCOCC5)c([N+](=O)[O-])c4)c(Oc4cnc5[nH]ccc5c4)c3)CC2)=C(c2ccc(Cl)cc2)C1 [Venetoclax] + C[C@@H]1COCCN1C2=NC(=NC(=C2)C3(CC3)[S@](=N)(=O)C)C4=C5C=CNC5=NC=C4 [AZD6738] (first compound max 1 µM, 7x7, partner max 10 µM) | 0.798 | 0.415 | 0.718 | 0.674 | 0.494 | 0.911 | 0.666 | 0.992 | -0.0216 | -0.0419 | -0.0486 | -0.0075 | -0.014 | -0.0106 | -0.121 | -0.0308 | -0.0671 | 0.0087 | -0.0396 | -0.0229
2 | CS(=O)(=O)CCNCc1ccc(-c2ccc3ncnc(Nc4ccc(OCc5cccc(F)c5)c(Cl)c4)c3c2)o1 [Lapatinib] + C[C@@H](Oc1cc(-c2cnn(C3CCNCC3)c2)cnc1N)c1c(Cl)ccc(F)c1Cl [Crizotinib] (first compound max 10 µM, 7x7, partner max 10 µM) | 0.857 | 0.732 | 0.998 | 0.86 | 0.936 | 0.895 | 0.7 | 0.995 | 0.0298 | -0.0357 | 0.0601 | -0.0518 | 0.061 | -0.0347 | -0.0527 | -0.0461 | -0.026 | -0.0557 | -0.0702 | -0.0067
3 | COc1nnc2ccc(N3CCC(c4ccc(OCCN5CCN(C)C(=O)[C@H]5C)cc4)CC3)nn12 [AZD5153] + C[C@@H]1COCCN1C2=NC(=NC(=C2)C3(CC3)[S@](=N)(=O)C)C4=C5C=CNC5=NC=C4 [AZD6738] (first compound max 1 µM, 7x7, partner max 10 µM) | 0.823 | 0.645 | 0.713 | 0.774 | 0.757 | 0.823 | 0.606 | 1 | 0.0411 | 0.0769 | -0.0151 | 0.0079 | 0.0222 | -0.0165 | -0.018 | 0.0552 | 0.0692 | -0.0709 | 0.0472 | 0.0069
4 | COc1cccc(OCCCN)c1-c1cc(Nc2cnc(C#N)cn2)n[nH]1 [Prexasertib] + C=CCn1c(=O)c2cnc(Nc3ccc(N4CCN(C)CC4)cc3)nc2n1-c1cccc(C(C)(C)O)n1 [AZD1775] (first compound max 1 µM, partner max 1 µM) | 0.916 | 0.849 | 0.838 | 0.952 | 0.972 | 0.906 | 0.721 | 1 | 0.0134 | 0.159 | 0.0356 | -0.0343 | 0.0718 | 0.0152 | 0.0697 | 0.0888 | 0.0205 | 0.0168 | 0.0202 | -0.0206
5 | CN(C)CCCOc1ccc(-c2ccc3ncc4c(c3c2)n(C2CCOCC2)c(=O)n4C)cn1 [AZD0156] + C=CCn1c(=O)c2cnc(Nc3ccc(N4CCN(C)CC4)cc3)nc2n1-c1cccc(C(C)(C)O)n1 [AZD1775] (first compound max 1 µM, partner max 1 µM) | 0.623 | 0.557 | 0.587 | 0.535 | 0.526 | 0.836 | 0.442 | 1 | 0.0198 | -0.023 | -0.018 | -0.0826 | -0.0201 | 0.0077 | -0.0373 | -0.0275 | 0.0007 | -0.0006 | -0.0179 | -0.0348
6 | CC(=O)Nc1cccc(-n2c(=O)n(C3CC3)c(=O)c3c(Nc4ccc(I)cc4F)n(C)c(=O)c(C)c32)c1 [Trametinib] + Cc1nc(-c2cn3c(n2)-c2ccc(-c4cnn(C(C)(C)C(N)=O)c4)cc2OCC3)n(C(C)C)n1 [Taselisib] (first compound max 1 µM, 7x7, partner max 10 µM) | 0.769 | 0.955 | 1 | 0.935 | 0.674 | 0.616 | 1 | 0.777 | -0.0503 | 0.12 | 0.192 | -0.0339 | 0.107 | 0.0652 | 0.056 | 0.0783 | 0.0549 | 0.149 | 0.0954 | 0.0958
7 | CN(C)CCCOc1ccc(-c2ccc3ncc4c(c3c2)n(C2CCOCC2)c(=O)n4C)cn1 [AZD0156] + C[C@@H]1COCCN1C2=NC(=NC(=C2)C3(CC3)[S@](=N)(=O)C)C4=C5C=CNC5=NC=C4 [AZD6738] (first compound max 1 µM, 7x7, partner max 10 µM) | 0.769 | 0.459 | 0.721 | 0.815 | 0.706 | 0.785 | 0.666 | 0.983 | -0.0052 | 0.0031 | 0.0116 | -0.0187 | -0.0134 | 0.0352 | -0.0343 | 0.0378 | -0.021 | -0.0305 | 0.031 | -0.0323
